Assay results taken from patent US20250197403A1, “HETEROARYL COMPOUNDS FOR TREATMENT OF COMPLEMENT FACTOR D MEDIATED DISORDERS” (Achillion Pharmaceuticals, Inc., priority 2020, published 2025).
pIC50: −log10 of the molar value.

Biological target: Human Factor D (Homo sapiens (Human), UniProt P00746)
Experiment: Human Factor D Assay
Type: biochemical
Conditions: Human Factor D 80 nM, substrate Z-L-Lys-SBzl, assay according to Example 3
In short: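 Serum-purified factor D (80 nM final) preincubated with compound 5 min at room temperature in 50 mM Tris, 1M NaCl, pH 7.5. Z-L-Lys-SBzl substrate and DTNB added at 100 μM each; A405 read every 30 s for 30 min. IC50 from nonlinear regression of reaction rates versus compound concentration.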

Chain of Human Factor D (P00746 26-253): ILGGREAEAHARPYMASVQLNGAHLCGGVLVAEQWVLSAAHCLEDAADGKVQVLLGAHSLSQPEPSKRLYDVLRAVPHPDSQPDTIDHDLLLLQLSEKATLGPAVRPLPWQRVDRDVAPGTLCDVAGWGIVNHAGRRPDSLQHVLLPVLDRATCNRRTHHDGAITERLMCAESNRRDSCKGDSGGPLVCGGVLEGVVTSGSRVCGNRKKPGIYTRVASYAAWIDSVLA

Row | SMILES | pIC50
1 | COCc1ccc(C(F)(F)F)nc1NC(=O)[C@@H]1C[C@@]2(C)C[C@H]2N1C(=O)Cn1cc(C(C)=O)c2cc(-c3ccc4nc(C)nn4c3)c(F)c(C)c21 [Compound 5, (1R,3S,5R)-2-(2-(3-acetyl-6-fluoro-7-methyl-5-(2-methyl-[1,2,4]triazolo[1,5-a]pyridin-6-yl)-1H-indol-1-yl)acetyl)-N-(3-(meth-oxymethyl)-6-(trifluoro-methyl)pyridin-2-yl)-5-methyl-2-azabicyclo[3.1.0] hexane-3-carboxamide] | > 6.00
2 | [2H]C([2H])([2H])OC([2H])([2H])c1ccc(C(F)(F)F)nc1NC(=O)[C@@H]1C[C@@]2(C)C[C@H]2N1C(=O)Cn1cc(C(C)=O)c2cc(-c3cnc4cc(C)nn4c3)cc(C)c21 [Compound 80, (1R,3S,5R)-2-(2-(3-acetyl-7-methyl-5-(2-methylpyr-azolo[1,5-a]pyrimidin-6-yl)-1H-indol-1-yl)acetyl)-N-(3-((methoxy-d3)meth-yl-d2)-6-(trifluoromethyl)-pyridin-2-yl)-5-methyl-2-azabicyclo[3.1.0]hexane-3-carboxamide] | > 6.00
